The results in this text go back to ChEMBL document CHEMBL1149790, “Synthesis of some novel thiourea derivatives obtained from 5-[(4-aminophenoxy)methyl]-4-alkyl/aryl-2,4-dihydro-3H-1,2,4-triazole-3-thiones and evaluation as antiviral/anti-HIV and anti-tuberculosis agents” (Eur J Med Chem, 2008).

In brackets after ≈: the same amount, converted by molar mass.

This assay concerns Mycobacterium tuberculosis. The assay can be described thus: Antitubercular activity against Mycobacterium bovis BCG. The format is functional. Conditions: variant bovis BCG.

For the molecule `CC(C)CCOc1ccc(NC(=S)Nc2ccc(OCCC(C)C)cc2)cc1` [TIOCARLIDE], the MIC was 0.5 µg/mL (≈ 1.25 µM).

The term MIC denotes the least concentration at which growth counts as inhibited.
